Reference: the supplement of paper PMC11208160

assay: recombinant barcode read abundance after kanamycin selection (control-corrected) (log10(CPM+1)); higher = more efficient recombination; sequences stand for … in AGTGCAGAGAAAATCGGCCAGTTTTCTCTGCCTGCAGTCCGCATGCCGT…AGATTTATGCAGCGGACTGCCTTTCTCCCAAAGTGATAAACCGGACAGTATCATGGACCGGTTTTCCCGGTAATCCGTATTTGCAAGGTTGGTTTCACT; site = the 11-nt target
In short: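 Pooled oligos, each joining a target to an IS621 bridge RNA target-binding loop, were cloned and co-electroporated with a donor plasmid into E. coli. Selective plates carried chloramphenicol/ampicillin/kanamycin and 0.1 mM IPTG, while chloramphenicol/ampicillin LB agar served as control, with two replicates of each. Recombination efficiency rests on averaged, control-corrected counts per million of barcodes at recombinant junctions, shown as log10(CPM+1).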
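Also: IS621 recombinase and bridge RNA in Escherichia coli cells.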

Going from “TAGGCTCCTTGGGTTCTAACCTGTTGCAC (site TAGGCTCCTTT)” to “ACGACTCCTTGGGTTCTAACCTGTTGCTT (site ACGAGTCCTAA)”, the “recombinant barcode read abundance (log10)” value falls from 0.726 to 0.0152.

Compared with “GTCTCTACTTGGGTTCTAACCTGTTGCCG (site GTCCCTACTCG)”, “CTCTACTCTTGGGTTCTAACCTGTTGCCT (site TTCTACTCTAG)” is lower in “recombinant barcode read abundance (log10)” value: 0.593 for the first, 0.0366 for the second.

Compared with “ATACGTCCTTGGGTTCTAACCTGTTGCAT (site AGACGTCCTAC)”, “GAGCCTACTTGGGTTCTAACCTGTTGCCT (site GAACCTACTCG)” is lower in “recombinant barcode read abundance (log10)” value: 0.224 for the first, 0.0224 for the second.

Compared with “AATATAGCTTGGGTTCTAACCTGTTGCTA (site TTCCCCACTAG)”, “TAACCTACTTGGGTTCTAACCTGTTGCAT (site TAACCTACTAT)” is higher in “recombinant barcode read abundance (log10)” value: 0 for the first, 0.802 for the second.

First: CTACAGACTTGGGTTCTAACCTGTTGCGC (site CTACAGACTAC)
Second: TCTCAACCTTGGGTTCTAACCTGTTGCCT (site TCTAAACCTAG)
The “recombinant barcode read abundance (log10)” value of the first is higher: 0.253 for the first, 0.0445 for the second.

Compared with “CTACGTCCTTGGGTTCTAACCTGTTGCTC (site CTACGTCCTAA)”, “CGAGCTCCTTGGGTTCTAACCTGTTGCGT (site CGAGCTCCTAC)” is higher in “recombinant barcode read abundance (log10)” value: 0.191 for the first, 2.04 for the second.

First: GATACTGCTTGGGTTCTAACCTGTTGCCT (site GAAACTGCTAG)
Second: GACCTACCTTGGGTTCTAACCTGTTGCAG (site GACCTACCTCT)
The “recombinant barcode read abundance (log10)” value of the first is lower: 0.0212 for the first, 2.18 for the second.

Compared with “GCCTGCCCTTGGGTTCTAACCTGTTGCCT (site GCCTGCCCTAG)”, “TAATCGTCTTGGGTTCTAACCTGTTGCCT (site TAATCGGCTAG)” is lower in “recombinant barcode read abundance (log10)” value: 0.892 for the first, 0.0826 for the second.

Compared with “TCCAAACCTTGGGTTCTAACCTGTTGCGG (site TCCAAACCTCC)”, “AGCAGCCCTTGGGTTCTAACCTGTTGCAG (site GTTCCAGCTAG)” is lower in “recombinant barcode read abundance (log10)” value: 2.04 for the first, 0.0963 for the second.

“GAGAGAGCTTGGGTTCTAACCTGTTGCAT (site GAGTGAGCTAT)” and “CAGGCGGCTTGGGTTCTAACCTGTTGCCT (site CAGGCGACTAG)” are within 0.2 log units of each other in “recombinant barcode read abundance (log10)” value: 0.14 for the first, 0.117 for the second.

Compared with “TCTTTAGCTTGGGTTCTAACCTGTTGCAG (site CTAAGGTCTTA)”, “TAGTATCCTTGGGTTCTAACCTGTTGCCT (site TAGTATCCTAG)” is higher in “recombinant barcode read abundance (log10)” value: 0.24 for the first, 1.04 for the second.

“ACCGCGACTTGGGTTCTAACCTGTTGCCT (site ACCGGGACTAG)” and “AACTAAACTTGGGTTCTAACCTGTTGCCT (site AACTCAACTAG)” are within 0.2 log units of each other in “recombinant barcode read abundance (log10)” value: 0.218 for the first, 0.0768 for the second.

Going from “TGAGCACCTTGGGTTCTAACCTGTTGCCT (site TGAGCACCTAG)” to “ATCGTATCTTGGGTTCTAACCTGTTGCGC (site GGGCAGGCTAG)”, the “recombinant barcode read abundance (log10)” value falls from 1.74 to 0.832.

“CAATCCTCTTGGGTTCTAACCTGTTGCTA (site TCTGTAACTAG)” and “AACCTTACTTGGGTTCTAACCTGTTGCCT (site ACCCTTACTAG)” are within 0.2 log units of each other in “recombinant barcode read abundance (log10)” value: 0.0981 for the first, 0.122 for the second.

Going from “GAGTGTTCTTGGGTTCTAACCTGTTGCTT (site GAGTGTTCTAA)” to “TCCCAAACTTGGGTTCTAACCTGTTGCAC (site CTAACTGCTAC)”, the “recombinant barcode read abundance (log10)” value falls from 0.277 to 0.0667.

First: TAACGATCTTGGGTTCTAACCTGTTGCAT (site TAACGATCTAT)
Second: AGTGTCACTTGGGTTCTAACCTGTTGCGG (site AGTGTCACTCC)
The “recombinant barcode read abundance (log10)” value of the first is lower: 0.497 for the first, 2.77 for the second.

Compared with “GCTGAGACTTGGGTTCTAACCTGTTGCGT (site CTCTGTCCTCA)”, “GGGTAACCTTGGGTTCTAACCTGTTGCCT (site AGGTAACCTAG)” is lower in “recombinant barcode read abundance (log10)” value: 0.237 for the first, 0 for the second.

“CTCGGTTCTTGGGTTCTAACCTGTTGCCT (site CTCGGTACTTG)” and “TGTAGTCCTTGGGTTCTAACCTGTTGCTT (site TGTAGTCCTAC)” are within 0.2 log units of each other in “recombinant barcode read abundance (log10)” value: 0.128 for the first, 0.264 for the second.

First: ATTTCGACTTGGGTTCTAACCTGTTGCCT (site AGTTCGACTAG)
Second: TGAGGGTCTTGGGTTCTAACCTGTTGCTT (site AGAGGGTCTAA)
The “recombinant barcode read abundance (log10)” value of the first is lower: 0.142 for the first, 0.497 for the second.

“CACTGGGCTTGGGTTCTAACCTGTTGCAG (site CACTTGGCTCT)” and “GCGGATCCTTGGGTTCTAACCTGTTGCTA (site AGATTAGCTCG)” are within 0.2 log units of each other in “recombinant barcode read abundance (log10)” value: 0.115 for the first, 0.159 for the second.

“TAGAAGGCTTGGGTTCTAACCTGTTGCTT (site TAGAAGGCTAC)” and “TTGAATGCTTGGGTTCTAACCTGTTGCCT (site TTGACTGCTAG)” are within 0.2 log units of each other in “recombinant barcode read abundance (log10)” value: 0.0392 for the first, 0.0516 for the second.

“GGGTCGGCTTGGGTTCTAACCTGTTGCGA (site GGGTCGGCTGC)” and “GTTAGAACTTGGGTTCTAACCTGTTGCTT (site CCATTGTCTCG)” are within 0.2 log units of each other in “recombinant barcode read abundance (log10)” value: 0.179 for the first, 0.0117 for the second.

“TGACTCTCTTGGGTTCTAACCTGTTGCCT (site TCACTCTCTAG)” and “AGTAAGACTTGGGTTCTAACCTGTTGCTT (site AGTAAGACTAC)” are within 0.2 log units of each other in “recombinant barcode read abundance (log10)” value: 0.172 for the first, 0.354 for the second.

Going from “TCCGAGACTTGGGTTCTAACCTGTTGCCA (site TCCGAGACTCG)” to “GTCTTCCCTTGGGTTCTAACCTGTTGCCG (site GTCTTCCCTCG)”, the “recombinant barcode read abundance (log10)” value rises from 0.208 to 1.5.

Going from “CTAGTGACTTGGGTTCTAACCTGTTGCGG (site CTAGTGACTCC)” to “AAACGGTCTTGGGTTCTAACCTGTTGCTA (site AAATGGTCTTA)”, the “recombinant barcode read abundance (log10)” value falls from 1.74 to 0.131.

Going from “CTGAGCCCTTGGGTTCTAACCTGTTGCAT (site CGGAGCCCTCT)” to “CTAAAAGCTTGGGTTCTAACCTGTTGCAA (site GGCTGTCCTAC)”, the “recombinant barcode read abundance (log10)” value rises from 0.0964 to 0.628.

Going from “GTCTACTCTTGGGTTCTAACCTGTTGCTG (site GTCTACTCTCA)” to “AGGTGTCCTTGGGTTCTAACCTGTTGCGA (site TATATATCTAT)”, the “recombinant barcode read abundance (log10)” value falls from 1.65 to 0.247.

“ACACCACCTTGGGTTCTAACCTGTTGCCT (site ACACCACCTAG)” and “TCTAGACCTTGGGTTCTAACCTGTTGCCT (site TCTAGAGCTAG)” are within 0.2 log units of each other in “recombinant barcode read abundance (log10)” value: 0.0741 for the first, 0.139 for the second.

“GATTCTCCTTGGGTTCTAACCTGTTGCGT (site GATTCTCCTAA)” and “GCCATGTCTTGGGTTCTAACCTGTTGCTA (site ACCTTGTCTTA)” are within 0.2 log units of each other in “recombinant barcode read abundance (log10)” value: 0.0946 for the first, 0.0829 for the second.

Going from “TCCGAGACTTGGGTTCTAACCTGTTGCCA (site TCCGAGACTTG)” to “TATAGCTCTTGGGTTCTAACCTGTTGCCT (site CATAGCTCTAG)”, the “recombinant barcode read abundance (log10)” value falls from 1.34 to 0.242.

Going from “GCGAACCCTTGGGTTCTAACCTGTTGCGG (site GCGAACCCTCC)” to “CGTGACCCTTGGGTTCTAACCTGTTGCTT (site CGGGACCCTAG)”, the “recombinant barcode read abundance (log10)” value falls from 0.967 to 0.0226.

First: ACCGCGACTTGGGTTCTAACCTGTTGCCT (site ACCGAGACTAG)
Second: CAGTGAACTTGGGTTCTAACCTGTTGCCT (site CAGTGAACTAG)
The “recombinant barcode read abundance (log10)” value of the first is lower: 0.0792 for the first, 1.55 for the second.

“TTGTGAGCTTGGGTTCTAACCTGTTGCGC (site AGTCACACTCT)” and “TAGTGCTCTTGGGTTCTAACCTGTTGCCG (site TAGTGCTCTTG)” are within 0.2 log units of each other in “recombinant barcode read abundance (log10)” value: 0.182 for the first, 0.355 for the second.

First: CTAGTGACTTGGGTTCTAACCTGTTGCGA (site CTAGTGACTTC)
Second: GAGCAGTCTTGGGTTCTAACCTGTTGCCT (site GAGTAGTCTAG)
The “recombinant barcode read abundance (log10)” value of the first is higher: 1.99 for the first, 0.214 for the second.

First: GGTTGACCTTGGGTTCTAACCTGTTGCGG (site GGTTGACCTCC)
Second: GATGGCCCTTGGGTTCTAACCTGTTGCTT (site GATGGCCCTAA)
The “recombinant barcode read abundance (log10)” value of the first is higher: 1.51 for the first, 0.528 for the second.

Going from “AGTTTCGCTTGGGTTCTAACCTGTTGCGG (site AGTCTCGCTCC)” to “TCGGAGTCTTGGGTTCTAACCTGTTGCTG (site TCGGAGTCTCA)”, the “recombinant barcode read abundance (log10)” value rises from 0.0337 to 0.963.

Compared with “GATTCTACTTGGGTTCTAACCTGTTGCGT (site CATGCTACTAC)”, “GAGGAGCCTTGGGTTCTAACCTGTTGCGT (site TAGGAACCTAC)” is higher in “recombinant barcode read abundance (log10)” value: 0.0209 for the first, 1.34 for the second.

“GTGGCGTCTTGGGTTCTAACCTGTTGCCT (site TTGGCCTCTAG)” and “ATGCCGACTTGGGTTCTAACCTGTTGCCT (site ATGCCAACTAG)” are within 0.2 log units of each other in “recombinant barcode read abundance (log10)” value: 0.104 for the first, 0.101 for the second.

Going from “CACTGTTCTTGGGTTCTAACCTGTTGCCT (site CACTGTTCTAG)” to “TCCCGATCTTGGGTTCTAACCTGTTGCCT (site TCCCGACCTAG)”, the “recombinant barcode read abundance (log10)” value falls from 0.737 to 0.521.

“TCTTAGACTTGGGTTCTAACCTGTTGCGG (site ACTTAGACTCC)” and “CGTCAGCCTTGGGTTCTAACCTGTTGCCT (site CGTCACCCTAG)” are within 0.2 log units of each other in “recombinant barcode read abundance (log10)” value: 0.172 for the first, 0.0486 for the second.

“GTCCCTCCTTGGGTTCTAACCTGTTGCAT (site GTCCCTCCTAG)” and “TCCGTGCCTTGGGTTCTAACCTGTTGCCT (site TCCGTGGCTAG)” are within 0.2 log units of each other in “recombinant barcode read abundance (log10)” value: 0.16 for the first, 0.304 for the second.

“TCCGTGCCTTGGGTTCTAACCTGTTGCCT (site TCCGTGACTAG)” and “AGTTGTCCTTGGGTTCTAACCTGTTGCGT (site AGTTGTCCTAG)” are within 0.2 log units of each other in “recombinant barcode read abundance (log10)” value: 0.00917 for the first, 0.108 for the second.

“ACCTTGCCTTGGGTTCTAACCTGTTGCCT (site ACATTGCCTAG)” and “CCACTAGCTTGGGTTCTAACCTGTTGCAG (site AATGGGTCTAA)” are within 0.2 log units of each other in “recombinant barcode read abundance (log10)” value: 0.178 for the first, 0 for the second.
